# Reference: patent publication US20170071944A1, “MODULATORS OF TOLL-LIKE RECEPTORS FOR THE TREATMENT OF HIV” (Gilead Sciences, Inc., priority 2015, published 2017)
# Test system: immune cell subsets in PBMC cultures from HIV-1 infected subjects on cART
# Assay: Induced immune cell activation in PBMC cultures from HIV-1 infected subjects on cART (flow cytometry)
# Type: cell-based, human
# Conditions: for B Cells CD69 % / B Cells CD69 Fold vs DMSO / B Cells CD80 % / B Cells CD80 Fold vs DMSO / DCs CD69 % / DCs CD69 Fold vs DMSO / DCs CD80 % / DCs CD80 Fold vs DMSO / CD4+ T Cells CD25 % / CD4+ T Cells CD25 Fold vs DMSO / CD4+ T Cells CD69 % / CD4+ T Cells CD69 Fold vs DMSO / CD4+ T Cells Perforin % / CD4+ T Cells Perforin Fold vs DMSO / CD8+ T Cells CD25 % / CD8+ T Cells CD25 Fold vs DMSO / CD8+ T Cells CD28 % / CD8+ T Cells CD28 Fold vs DMSO / CD8+ T Cells CD38 % / CD8+ T Cells CD38 Fold vs DMSO / CD8+ T Cells CD69 % / CD8+ T Cells CD69 Fold vs DMSO / Monocytes CD11c % / Monocytes CD11c Fold vs DMSO / Monocytes CD69 % / Monocytes CD69 Fold vs DMSO / Monocytes CD80 % / Monocytes CD80 Fold vs DMSO / NK Cells CD25 % / NK Cells CD25 Fold vs DMSO / NK Cells CD69 % / NK Cells CD69 Fold vs DMSO: 2 days, geometric mean; for B Cells CD69 % / B Cells CD69 Fold vs DMSO / B Cells CD80 % / B Cells CD80 Fold vs DMSO / DCs CD69 % / DCs CD69 Fold vs DMSO / DCs CD80 % / DCs CD80 Fold vs DMSO: N = 4; for CD4+ T Cells CD25 % / CD4+ T Cells CD25 Fold vs DMSO / CD4+ T Cells CD69 % / CD4+ T Cells CD69 Fold vs DMSO / CD4+ T Cells Perforin % / CD4+ T Cells Perforin Fold vs DMSO / CD8+ T Cells CD25 % / CD8+ T Cells CD25 Fold vs DMSO / CD8+ T Cells CD28 % / CD8+ T Cells CD28 Fold vs DMSO / CD8+ T Cells CD38 % / CD8+ T Cells CD38 Fold vs DMSO / CD8+ T Cells CD69 % / CD8+ T Cells CD69 Fold vs DMSO / Monocytes CD11c % / Monocytes CD11c Fold vs DMSO / Monocytes CD69 % / Monocytes CD69 Fold vs DMSO / Monocytes CD80 % / Monocytes CD80 Fold vs DMSO / NK Cells CD25 % / NK Cells CD25 Fold vs DMSO / NK Cells CD69 % / NK Cells CD69 Fold vs DMSO: N = 6
# Experimental: TLR8 modulating compound affects activation of distinct cell populations, PBMCs were purified from HIV-1 infected subjects on cART, as described in Example 121 (anonymized participant IDs 184, 185, 188, 189, 190, and 191). […] After incubation, PBMCs were harvested and stained with antibodies conjugated to specific fluorophores (BD Biosciences) to delineate immune cell subsets: CD4 T cells (CD3+ CD4+ CD8-), CD8 T cells (CD3+ CD8+ CD4-), NK cells (CD3-CD56+ CD16+), monocytes (CD3-CD14+), B cells (CD3-CD19+), and peripheral dendritic cells (DCs), defined as positive for HLA-DR and negative for a panel of markers: CD3, CD14, CD16, CD19, CD20, CD56 (Lin-1 lineage panel, BD Biosciences).
# Additional markers of activation, maturation, and effector function were included for cell subsets, as follows: CD4 and CD8 T cells (CD25, CD38, CD69, IFN-γ, granzyme B, perforin, TNF-α), NK cells (CD25, CD69, IFN-γ), monocytes (CD11c, CD16, CD80, CD86, CD163, TNF-α), B cells (CD40, CD69, CD80, CD86), and DC (CD11c, CD69, CD80, CD86, CD123, and CD163). Cells were stained for surface markers (CD3, CD4, CD8, CD11c, CD14, CD16, CD25, CD69, CD80, CD86, CD163), washed, treated with fixation and permeabilization buffer (eBioscience), and stained for intracellular markers (IFN-γ, granzyme B, perforin, TNF-α). Cells were evaluated by flow cytometry on a LSR Fortessa (BD Biosciences), and data was analyzed with FlowJo software (TreeStar).
# Data are expressed as geometric mean percentage (%) and as geometric mean fold-activation (Fold) for each marker and for each PBMC subset obtained from 4 or 6 subjects, as indicated. Fold activation is calculated as a ratio of the % positive for each marker for each PBMC subset at the indicated concentration of the compound of Example 15 relative to % positive for DMSO treated samples. Fold activations that are 1.5 are in bold.
smiles,measurement,setting,value
CCCC[C@H](CO)Nc1nc(N)nc2cccnc12 [Example 15],B Cells CD69 %,Example 15 1000 nM,9.1%
same,B Cells CD69 Fold vs DMSO,Example 15 1000 nM,1.1 fold
same,B Cells CD80 %,Example 15 1000 nM,2.2%
same,B Cells CD80 Fold vs DMSO,Example 15 1000 nM,1.4 fold
same,DCs CD69 %,Example 15 1000 nM,8.5%
same,DCs CD69 Fold vs DMSO,Example 15 1000 nM,3.3 fold
same,DCs CD80 %,Example 15 1000 nM,82.0%
same,DCs CD80 Fold vs DMSO,Example 15 1000 nM,2.9 fold
same,CD4+ T Cells CD25 %,Example 15 1000 nM,4.2%
same,CD4+ T Cells CD25 Fold vs DMSO,Example 15 1000 nM,1.8 fold
same,CD4+ T Cells CD69 %,Example 15 1000 nM,11.7%
same,CD4+ T Cells CD69 Fold vs DMSO,Example 15 1000 nM,1.5 fold
same,CD4+ T Cells Perforin %,Example 15 1000 nM,14.2%
same,CD4+ T Cells Perforin Fold vs DMSO,Example 15 1000 nM,1.8 fold
same,CD8+ T Cells CD25 %,Example 15 1000 nM,0.7%
same,CD8+ T Cells CD25 Fold vs DMSO,Example 15 1000 nM,2.2 fold
same,CD8+ T Cells CD28 %,Example 15 1000 nM,0.4%
same,CD8+ T Cells CD28 Fold vs DMSO,Example 15 1000 nM,4.4 fold
same,CD8+ T Cells CD38 %,Example 15 1000 nM,56.8%
same,CD8+ T Cells CD38 Fold vs DMSO,Example 15 1000 nM,2.0 fold
same,CD8+ T Cells CD69 %,Example 15 1000 nM,10.4%
same,CD8+ T Cells CD69 Fold vs DMSO,Example 15 1000 nM,2.2 fold
same,Monocytes CD11c %,Example 15 1000 nM,1.2%
same,Monocytes CD11c Fold vs DMSO,Example 15 1000 nM,1.6 fold
same,Monocytes CD69 %,Example 15 1000 nM,6.2%
same,Monocytes CD69 Fold vs DMSO,Example 15 1000 nM,2.0 fold
same,Monocytes CD80 %,Example 15 1000 nM,86.4%
same,Monocytes CD80 Fold vs DMSO,Example 15 1000 nM,3.0 fold
same,NK Cells CD25 %,Example 15 1000 nM,5.2%
same,NK Cells CD25 Fold vs DMSO,Example 15 1000 nM,10.4 fold
same,NK Cells CD69 %,Example 15 1000 nM,21.1%
same,NK Cells CD69 Fold vs DMSO,Example 15 1000 nM,12.4 fold
same,B Cells CD69 %,Example 15 3000 nM,13.6%
same,B Cells CD69 Fold vs DMSO,Example 15 3000 nM,1.7 fold
same,B Cells CD80 %,Example 15 3000 nM,3.0%
same,B Cells CD80 Fold vs DMSO,Example 15 3000 nM,1.9 fold
same,DCs CD69 %,Example 15 3000 nM,23.2%
same,DCs CD69 Fold vs DMSO,Example 15 3000 nM,8.9 fold
same,DCs CD80 %,Example 15 3000 nM,57.1%
same,DCs CD80 Fold vs DMSO,Example 15 3000 nM,2.0 fold
same,CD4+ T Cells CD25 %,Example 15 3000 nM,3.0%
same,CD4+ T Cells CD25 Fold vs DMSO,Example 15 3000 nM,1.3 fold
same,CD4+ T Cells CD69 %,Example 15 3000 nM,13.1%
same,CD4+ T Cells CD69 Fold vs DMSO,Example 15 3000 nM,1.7 fold
same,CD4+ T Cells Perforin %,Example 15 3000 nM,17.0%
same,CD4+ T Cells Perforin Fold vs DMSO,Example 15 3000 nM,2.1 fold
same,CD8+ T Cells CD25 %,Example 15 3000 nM,0.9%
same,CD8+ T Cells CD25 Fold vs DMSO,Example 15 3000 nM,3.0 fold
same,CD8+ T Cells CD28 %,Example 15 3000 nM,0.5%
same,CD8+ T Cells CD28 Fold vs DMSO,Example 15 3000 nM,4.7 fold
same,CD8+ T Cells CD38 %,Example 15 3000 nM,56.8%
same,CD8+ T Cells CD38 Fold vs DMSO,Example 15 3000 nM,2.0 fold
same,CD8+ T Cells CD69 %,Example 15 3000 nM,11.6%
same,CD8+ T Cells CD69 Fold vs DMSO,Example 15 3000 nM,2.5 fold
same,Monocytes CD11c %,Example 15 3000 nM,1.5%
same,Monocytes CD11c Fold vs DMSO,Example 15 3000 nM,2.1 fold
same,Monocytes CD69 %,Example 15 3000 nM,7.9%
same,Monocytes CD69 Fold vs DMSO,Example 15 3000 nM,2.6 fold
same,Monocytes CD80 %,Example 15 3000 nM,77.4%
same,Monocytes CD80 Fold vs DMSO,Example 15 3000 nM,2.7 fold
same,NK Cells CD25 %,Example 15 3000 nM,4.8%
same,NK Cells CD25 Fold vs DMSO,Example 15 3000 nM,9.6 fold
same,NK Cells CD69 %,Example 15 3000 nM,20.1%
same,NK Cells CD69 Fold vs DMSO,Example 15 3000 nM,11.8 fold
same,Concentrations of maximal activation of NK cells,increased expression of CD25 and CD69,1000 nM
same,Concentrations of maximal activation of B cells,increased expression of CD69 and CD80,3000 nM
